# Source: PubChem BioAssay AID1996
# Details: buffer; pH 7.4; 200.0 µM
row,SMILES,solubility kinetic
1,CC(C(=O)N1CCc2ccccc21)N1CCN(Cc2ccccc2)CC1 (stereo unspecified),> 52.4 µg/mL
2,CCN(CC)C(=S)SC1=CCS(=O)(=O)C1,26.8 µg/mL
3,CCOc1ccccc1/C=C/C(=O)N1CCN(C(=O)c2ccco2)CC1,> 53.2 µg/mL
4,Cl.NC(=NCCc1ccccc1)c1cccc([N+](=O)[O-])c1,> 45.9 µg/mL
5,CSc1nc2ccccc2c(=O)n1C1CCCCC1,1 µg/mL
6,Cc1ccccc1N1CC2=C(C1=O)C(c1ccccc1)NC(=O)N2C (stereo unspecified),0.5 µg/mL
7,Cc1ccc(N2C(=O)CCC2=O)c(C)c1,28 µg/mL
8,COC(=O)c1c(C)oc(C)c1S(=O)(=O)NCc1ccc(OC)cc1,> 53 µg/mL
9,CC(C)NC(=O)C(=O)Nc1cc2c3c(c1)CCC(=O)N3CCC2,> 47.3 µg/mL
10,Cc1ccc(NC(=O)CCNC(=O)c2ccco2)cc1F,> 43.5 µg/mL
11,O=C(CN1CCN(S(=O)(=O)c2ccccc2F)CC1)N1CCc2ccccc2C1,12.8 µg/mL
12,CC(C)C1/C(=N/O)CC(c2ccccc2)NC1c1ccccc1 (stereo unspecified),< 0.3 µg/mL
13,Cc1ccc(C(=O)Nc2ccc(N3CCN(C)CC3)nc2)cc1,> 46.6 µg/mL
14,COc1cccc(C(=O)NC(C)c2cccc3ccccc23)c1OC (stereo unspecified),19 µg/mL
15,COC(=O)C1=C(N)Oc2c(oc(CO)cc2=O)C1c1ccc(F)cc1 (stereo unspecified),> 52.1 µg/mL
16,CC(C)(C)NC(=O)c1cccnc1Sc1ccccc1,> 43 µg/mL
17,Cc1ccc2[nH]c(O)c(N=O)c2c1,> 26.4 µg/mL
18,Cc1occc1C(=O)N1CCCC(Nc2ccc(F)cc2)C1 (stereo unspecified),> 45.4 µg/mL
19,COc1cc(/C=C2/CC(C)OC2=O)c([N+](=O)[O-])cc1OC (stereo unspecified),> 44 µg/mL
20,COc1ccc(/C(C)=N/N2C(C)CCCC2C)c(OC)c1 (stereo unspecified),> 43.6 µg/mL
21,Cc1ccc(NC(=O)C(C)SCc2ccccc2)cc1 (stereo unspecified),32.8 µg/mL
22,COc1ccc(CC(=O)OCC(=O)NCc2ccc(F)cc2)cc1,> 49.7 µg/mL
23,NC(=O)COC(=O)c1sc2cc(F)ccc2c1Cl,6.3 µg/mL
24,O=C(CCc1ccc(O)c(O)c1)N/N=C/c1ccc2c(c1)OCO2,> 49.2 µg/mL
25,COc1ccc(CNC(=O)CCN2C(=S)NC(C)(C)CC2C)cc1 (stereo unspecified),> 52.4 µg/mL

row,SMILES,solubility kinetic
1,COc1ccc(N2CCN(Cc3nc4ccccc4[nH]3)CC2)cc1,> 48.4 µg/mL
2,Cc1ccnc(SCc2ccc(C(=O)O)cc2)n1,> 39 µg/mL
3,CC(=O)c1sc2nsc(SCCN3CCCC3)c2c1N,46.7 µg/mL
4,CC(CNC(=O)COC(=O)c1ccco1)c1ccccc1 (stereo unspecified),> 43.1 µg/mL
5,Cc1cc(C(=O)Nc2ccccc2C(=O)O)oc1C,31.3 µg/mL
6,C/C(=N\OC(=O)Nc1ccc(Cl)cc1)c1ccc(F)c(F)c1,5.2 µg/mL
7,COC(=O)c1cn(C(=O)c2ccc(Cl)cc2)c2ccccc12,1.6 µg/mL
8,Cl.NCCN1C(=O)S/C(=C\c2ccc3c(c2)OCO3)C1=O,> 49.3 µg/mL
9,CNC(=O)c1cc(C(=O)c2ccccc2Br)c[nH]1,> 46.1 µg/mL
10,O=C(C(=O)N1CCCC1)c1c(-c2ccccc2)[nH]c2ccccc12,> 47.8 µg/mL
11,C=CCn1c(NC(=O)c2ccccc2)nc2ccccc21,0.8 µg/mL
12,CCOC(=O)c1cc2c(=O)c3cc(C)ccc3oc2nc1C,< 0.6 µg/mL
13,COC(=O)c1ccc(NC(=S)N2CCN(CCO)CC2)cc1,> 48.5 µg/mL
14,O=C(NCCN1CCCCC1)Nc1ccccc1F,> 39.8 µg/mL
15,CNC(=O)c1ccc(NC(=O)CCc2c(C)noc2C)cc1,> 45.2 µg/mL
16,CNc1nc(Cl)c(SC)c(NCc2cccc(OC)c2)n1,1 µg/mL
17,CC(C)c1ccc(NC(=O)NCc2ccccn2)cc1,> 40.4 µg/mL
18,CC(C)(C)c1cc(C(=S)N2CCCC2)cc(C(C)(C)C)c1O,4.7 µg/mL
19,CC(=O)NC(CC(=O)O)C(=O)O (stereo unspecified),> 26.3 µg/mL
20,Cc1nc(Nc2ccc(Cl)cc2)c(C#N)c(=O)[nH]1,9.6 µg/mL
21,CCOC(=O)c1cc(C#N)c(C)nc1N(CC)CC,16.4 µg/mL
22,COc1ccc(N2CCN(C(CNC(=O)C(C)(C)C)c3ccco3)CC2)cc1 (stereo unspecified),54.8 µg/mL
23,Cc1cccc(Oc2ccc(NC(=O)c3ccccc3C(=O)O)cc2)c1,> 52.1 µg/mL
24,O=C(O)CCSC(=S)N1CCOCC1,29.3 µg/mL
25,CCCCCCC1CCC(C(=O)N2CCOCC2)CC1 (stereo unspecified),10 µg/mL

row,SMILES,solubility kinetic
1,O=C(NCCO)Nc1ccc(Cl)cc1,29 µg/mL
2,Cc1ccccc1CC(=O)Nc1ccc2c(C)cc(=O)oc2c1,2.1 µg/mL
3,O=C(c1c(Cl)cccc1Cl)N1CCN(c2cccc3[nH]ccc23)CC1,4.8 µg/mL
4,CCc1cc2cc(C)cc(C)c2[nH]c1=S,3.9 µg/mL
5,Nc1ccccc1C(=O)NC1CCCCNC1=O (stereo unspecified),> 37.1 µg/mL
6,O=[N+]([O-])c1cc(Cl)ccc1Sc1ccccn1,23.3 µg/mL
7,Cc1cc(OCC(=O)N2CCN(CC(=O)N3CCOCC3)CC2)c(C(C)C)cc1Cl,> 65.7 µg/mL
8,S=C(NCc1ccco1)N1CCN(c2cccc(Cl)c2)CC1,12 µg/mL
9,c1ccc(-c2csc(-c3cccnc3)n2)cc1,8.5 µg/mL
10,CCC(C(=O)Nc1nc(C)c(C(=O)OC)s1)c1ccccc1 (stereo unspecified),22.6 µg/mL
11,COC(=O)c1cnc(N2CCOCC2)nc1C(F)(F)F,35.3 µg/mL
12,COc1ccc(C(=O)Nc2ccc3[nH]ccc3c2)cc1,> 39.9 µg/mL
13,Cc1ccc(-n2c(=O)[nH]c3ncccc3c2=O)cc1,6.9 µg/mL
14,CCN(CC(=O)Nc1ccccc1Br)C1CCCCC1,9.1 µg/mL
15,OCCC1CN(CC2CCCCC2)CCN1CC1CCCCC1 (stereo unspecified),> 48.4 µg/mL
16,CC(=O)N1CCN(c2ccc(NC(=O)c3cccc(C)c3)cc2)CC1,7.7 µg/mL
17,COc1ccc2[nH]cc(C(=O)C(=O)N3CCCCC3)c2c1,> 42.9 µg/mL
18,CC1CC(C)CN(CCOc2cccc3ccccc23)C1 (stereo unspecified),34.1 µg/mL
19,Cc1cc2c([nH]c3ccccc32)c(C)[nH+]1.[Cl-],26.2 µg/mL
20,Cc1ccc(Cl)cc1NC(=O)COC(=O)c1ccccc1O,< 0.7 µg/mL
21,COc1ccc(S(=O)(=O)Nc2cccnc2)cc1OC,> 44.1 µg/mL
22,c1ccc(N2CCN(c3nc4ccccc4[nH]3)CC2)nc1,41.7 µg/mL
23,CSC1=N/C(=C/c2cccnc2)C(=O)N1Cc1ccccc1,5.2 µg/mL
24,O=C(COC(=O)c1ccc(Br)cc1)NC1CCCC1,5.4 µg/mL
25,CCNC(=S)N1CCC(NC(=O)c2ccco2)CC1,> 42.2 µg/mL

row,SMILES,solubility kinetic
1,CC(C#N)Sc1nnc(-c2ccccc2F)n1C1CC1 (stereo unspecified),> 43.3 µg/mL
2,CCCOc1ccc(-c2nc(N3CCN(C)CC3)c3ccccc3n2)cc1,14.5 µg/mL
3,S=c1[nH]nc(-c2cccc3ccccc23)n1-c1cccnc1,> 45.7 µg/mL
4,O=C(Nc1ccc(Br)cn1)C1CCN(S(=O)(=O)c2cccs2)CC1,< 0.3 µg/mL
5,CN(C(=O)c1ccc2ccccc2c1)c1ccccn1,> 39.3 µg/mL
6,COc1ccc(CCNCc2ccc(C)s2)cc1OC.Cl,> 49.2 µg/mL
7,CN(C)CCO[C@@H](c1ccc(Cl)cc1)c1ccccn1.O=C(O)/C=C\C(=O)O,> 61 µg/mL
8,COc1nc(C)nc(C)c1Oc1ccc(Cl)cc1Cl,1.5 µg/mL
9,CC1(C)c2cc(Cl)ccc2-n2c1cc(O)c(-c1ccccc1)c2=O,47.8 µg/mL
10,O=C(Nc1nc2c(s1)CN(Cc1ccccc1)CC2)C1CCC1,40 µg/mL
11,O=C(COc1ccccc1F)Nc1nc(-c2ccccn2)cs1,8.8 µg/mL
12,CCOc1ccc2c(c1)c1nc3ccccc3nc1n2C,< 0.2 µg/mL
13,CC(C)C(O)(C(=O)NNc1ccccc1)C(C)C,> 37.6 µg/mL
14,Cc1ccc(-n2c(O)c(C=NCc3ccco3)c(=O)[nH]c2=S)cc1C,11.1 µg/mL
15,CC(=O)Nc1cccc(C(=O)OCC(=O)Nc2ccc(Cl)cn2)c1,6.9 µg/mL
16,Cc1ccc(C2CC(=O)C=C(NCc3ccccc3)C2)cc1 (stereo unspecified),12.7 µg/mL
17,COc1ccc(CSc2nc(C)cc(C)c2C#N)cc1,2.7 µg/mL
18,CC1CC(C)CN(C(=O)c2cccc3c2-c2ccccc2C3=O)C1 (stereo unspecified),5 µg/mL
19,CC(C)Cc1ccc(S(=O)(=O)Nc2ccc3[nH]c(=O)[nH]c3c2)cc1,1.1 µg/mL
20,CCc1ccccc1NC(=O)COc1ccc2c(c1)OCO2,41.4 µg/mL
21,O=[N+]([O-])/C(=C\Nc1ccc(F)cc1F)S(=O)(=O)c1ccccc1,> 51 µg/mL
22,Cc1cccc(NC(=O)C(C)SCc2ccccc2)c1 (stereo unspecified),27.9 µg/mL
23,CC1CCc2sc(C(=O)OCC(=O)NC(C)C)cc2C1 (stereo unspecified),1.2 µg/mL
24,CCOC(=O)[C@H](CCc1ccccc1)N[C@@H](C)C(=O)N1Cc2ccccc2C[C@H]1C(=O)O.Cl,> 71.2 µg/mL
25,Cc1cc(NC(=O)COc2ccc3ccccc3c2)no1,0.6 µg/mL

row,SMILES,solubility kinetic
1,O=C(NCc1cccc(F)c1F)C1CCC(=O)N(C2CC2)C1 (stereo unspecified),38.1 µg/mL
2,Cc1ccccc1CCNCc1cc2cccc(C)c2[nH]c1=O,> 46 µg/mL
3,O=P([O-])(CN1CCCCCC1)C1Cc2ccccc2C1,43.7 µg/mL
4,O=C(CN1C(=O)S/C(=C\c2ccccn2)C1=O)Nc1ccccc1,1.5 µg/mL
5,CCCCC(=O)Nc1cccc(C(C)O)c1 (stereo unspecified),> 33.2 µg/mL
6,CCCNC(=O)c1oc2ccc3c(c2c1C)C=CC(C)(C)O3,14.2 µg/mL
7,CC(=O)Nc1ccccc1OC(C)C(=O)N1CC(C)CC(C)C1 (stereo unspecified),> 47.8 µg/mL
8,O=C(c1ccccc1)c1ccc(OCC(O)CN2CCCC2)cc1 (stereo unspecified),> 48.8 µg/mL
9,Cc1cc(Cl)ccc1OCC(=O)Nc1ccc(CN2CCOCC2)cc1,41.3 µg/mL
10,COCCCN(C(=O)C1CCCCC1)c1c(N)n(Cc2ccccc2)c(=O)[nH]c1=O,14.3 µg/mL
11,COc1ccc(NC(=O)C2C3C=CC(C3)C2C(=O)O)cc1 (stereo unspecified),> 43.1 µg/mL
12,O=C(NCCNc1ccc([N+](=O)[O-])cc1Cl)c1ccccc1F,1.8 µg/mL
13,Nc1ccc(Cl)c(S(=O)(=O)Nc2ccc(Cl)cc2)c1,43.4 µg/mL
14,Cc1ccnc(Nc2nc(-c3ccc(O)c(O)c3)cs2)c1,8.7 µg/mL
15,COc1cccc(OC)c1C(=O)Nc1cccc2c1CCCC2,41.1 µg/mL
16,Cc1cnc(C(=O)OCC(=O)c2ccc(F)cc2)cn1,> 41.1 µg/mL
17,Cc1nc(N2CCN(c3ccccc3)CC2)[nH]c(=O)c1C,39.5 µg/mL
18,CN(C1CCCCC1)S(=O)(=O)c1cn(C)c(=O)n(C)c1=O,> 47.3 µg/mL
19,CS(=O)(=O)N(CC(=O)Nc1ccc(Br)cc1)C1CCCCC1,55.5 µg/mL
20,COc1cccc(OC)c1CNC(=O)CCSCc1ccccc1F,37.3 µg/mL
21,COc1ccc(CCN(C)C2CC(=O)N(c3ccccc3)C2=O)cc1OC (stereo unspecified),> 55.3 µg/mL
